The text below walks through data of patent publication US7183314B1, “Compound for treatment of anxiety and methods of preparation and use thereof” (Naturon Limited, priority 2000, dated 2007).

Data set [1] relates to Male ICR mice. Kind of data set: Elevated plus-maze. It counts as in vivo. Particulars: for Total (total number of arm entries): 5 minute test. On the procedure:
(§1) Male ICR mice weighing 18–23 g were used. They were housed in groups of four or five with free access to food and water and maintained on a 11 hour light: 13 hour dark cycle. All of the experimental groups, except acute lethal activity test (10 mice of either sex) have 16 animals per group.
(§2) For the chronic test, mice received 5 days pretreatment before the test. Flumazenil (Ro15-1788) was administrated intraperitoneally (IP) 15 minutes before testing in an injection volume of 12.5 ml/kg.
The elevated plus-maze was made of wood and consisted of two open arms (25×5 cm) and two opposite arms enclosed by 20 cm high walls. The arms extended from a central platform (5×5 cm). The plus-maze was elevated to a height of 40 cm. The maze was put inside a box 30×30×50 cm. […] The number of entries into and the time spent on the open and closed arms were counted. The total number of arm entries provided a measure of general activity, and anxiety reduces the number of such entries. At the end of the test, the number of entries into open arms was expressed as a percentage of the total number of arm entries. The time spent on the open arms was also expressed as a percentage of time spent on both the open and closed arms. Testing took place between 8 A.M. and 12 P.M. Mice were randomly allocated to different test groups, and tested in a randomized order of drug treatment in a room lit by dim light. After each trial, the floor of the apparatus was wiped and dried thoroughly with tissue to remove traces of the previous path.

Data set [2] deals with Male ICR mice. Kind of data set: Locomotor activity test. It counts as in vivo. The conditions noted are these: oral; for Locomotor Activity Score: 5 minute period. How it is done:
as §1, §2
A ZIL-2 apparatus (Beijing Institute of Materia Medica) with dimensions 60×60×12 cm was used. It consists of four circular plastic boxes with diameter 25 cm and each has 6 equally distributed infrared photocells. The locomotor activity was counted automatically during a 5 minute period of test. An increase in the number of transitions reflects an increased locomotor activity.

Data set [3] deals with Male ICR mice. Kind of data set: Holeboard test. It counts as in vivo. The conditions noted are these: oral; for Head-dip Number / Head-dip Time: 5 minutes. How it is done: as §1, §2
The holeboard was a wooden box, 60×60×30 cm, with four holes of 3 cm diameter equally spaced in the floor. Mice were placed in the center of the holeboard and the number of head-dips, the time spent head-dipping were counted during 5 minutes (File, S. E., and Pellow, S., Br J Pharmacol 86: 729–735, 1985). Mice were allocated to different test groups randomly, and tested in an randomized order of drug treatment between 8 A.M. and 12 P.M. in a room lit by dim light. After each trial, the floor of the apparatus was wiped and dried thoroughly with tissue to remove traces of the previous path. An increase in the number and time spent head-dipping in this test are indicative of a greater exploratory activity. Conversely, a decrease in any of these parameters compared to controls is symptomatic of sedated behavior (Nolan, N. A., and Parkes, M. W., Psychopharmacol 29: 277–288, 1973; File, S. E., and Wardill, A. G., Psychopharmacol 44: 53–59, 1975; File, S. E., and Pellow, S., Psychopharmacol 88:1–11, 1986).

Data set [4] relates to Male ICR mice. Briefly: Horizontal wire test. It counts as in vivo. The conditions noted are these: up to 30 mg/kg, 1 hour after oral administration, FIG. 5. How it is done:
as §1, §2
Mice were lifted by the tail and allowed to grasp a horizontally strung wire (1 mm diameter, 15 cm long and placed 20 cm above the table) with their forepaws and released (Bonetti, E. P., et al., Psychopharmacol 78: 8–18, 1982). […] After two trials performed at 5 minute intervals, the test took place. A myorelaxant drug impairs the capacity of the mice to grasp the wire. Such muscle relaxation is commonly associated with sedation.

Data set [5] in a line: Acute lethal activity test. The conditions noted are these: both sexes, ICR, mouse, in vivo; in mice. On the procedure:
as §1

Data set [6] concerns BZD-S of the GABAA-receptor. The conditions noted are these: as variously reported; cited from earlier work.
Setting [7] is: Acute, 1 hour before test, 1 mg/kg.
[8] abbreviates: Chronic (5 days pretreatment), 1 mg/kg.
Where [9] appears, read: Acute, 1 hour before test, 3.75 mg/kg.
[10] abbreviates: Acute, 1 hour before test, 7.5 mg/kg.
Where [11] appears, read: Acute, 1 hour before test, 15 mg/kg.
[12] abbreviates: Acute, 1 hour before test, 30 mg/kg.
Where [13] appears, read: Chronic (5 days pretreatment), 3.75 mg/kg.
Setting [14] is: Chronic (5 days pretreatment), 7.5 mg/kg.
The mark [15] stands for this setting: Chronic (5 days pretreatment), 15 mg/kg.
The mark [16] stands for this setting: Chronic (5 days pretreatment), 30 mg/kg.

For `CN1C(=O)CN=C(c2ccccc2)c2cc(Cl)ccc21` [diazepam, reference compound], the “Total (total number of arm entries)” value in the data set with Male ICR mice [1] (Acute, oral, 1 hour before test, 1 mg/kg) came to 45.13 ± 2.31; in the data set with Male ICR mice [1] (Chronic (5 days pretreatment), oral, 1 mg/kg), 29.38 ± 2.67. The “Locomotor Activity Score” value in the data set with Male ICR mice [2] (setting [7]) is listed as 225.29 ± 15.80; with Male ICR mice [2] (setting [8]), 195.25 ± 13.03. Besides, the “Head-dip Number” value is 28.88 ± 2.16 with Male ICR mice [3] (setting [7]) and 31.94 ± 3.57 in the data set on Male ICR mice [3] (setting [8]). For the same compound, the figures for the “Head-dip Time” value in the data set on Male ICR mice [3] (setting [7]) and in the data set with Male ICR mice [3] (setting [8]) were 37.00 ± 0.79 and 36.50 ± 3.59, respectively.

The LD50 is the dose at which mortality reaches 50%. A high value points to a less toxic substance. Consider `COc1c(O)cc(O)c2c(=O)cc(-c3ccccc3)oc12` [wogonin], for which the Myorelaxant effects entry in the data set on Male ICR mice [4] is listed as “devoid of myorelaxant effects”. The compound further gave an LD50 in data set [5] of about 4000 mg/kg. Further, the “Binding affinity to the BZD-S of the GABAA-receptor” value in data set [6] is reported as “weak or moderate”. For the same compound, the “Anxiolytic effects: open arm entries (acute), % time spent in open arms (acute), % open arm entries (chronic)” value in the data set with Male ICR mice [1] (7.5, 15 or 30 mg/kg, oral, mice, FIG. 3) was “significant anxiolytic effects”. Further, the “Total (total number of arm entries)” value in the data set with Male ICR mice [1] (Acute, oral, 1 hour before test, 3.75 mg/kg) was found to be 34.56 ± 0.97; in the data set with Male ICR mice [1] (Acute, oral, 1 hour before test, 7.5 mg/kg), 45.56 ± 1.71; in the data set with Male ICR mice [1] (Acute, oral, 1 hour before test, 15 mg/kg), 43.50 ± 1.90; in the data set on Male ICR mice [1] (Acute, oral, 1 hour before test, 30 mg/kg), 47.00 ± 1.93; in the data set with Male ICR mice [1] (Chronic (5 days pretreatment), oral, 3.75 mg/kg), 27.56 ± 1.90; with Male ICR mice [1] (Chronic (5 days pretreatment), oral, 7.5 mg/kg), 31.75 ± 2.07. The “Total (total number of arm entries)” value with Male ICR mice [1] (Chronic (5 days pretreatment), oral, 15 mg/kg) worked out at 31.56 ± 2.13; with Male ICR mice [1] (Chronic (5 days pretreatment), oral, 30 mg/kg), 31.31 ± 1.77. The “Anxiolytic effect of wogonin after treatment with Flumazenil Ro15-1788” value with Male ICR mice [1] (Flumazenil Ro15-1788 2.5 mg/kg IP 15 minutes before testing, mice, FIG. 4) is reported as “completely abolished”. Also, the “Locomotor Activity Score” value worked out at 189.44 ± 6.54 in the data set on Male ICR mice [2] (setting [9]); 205.63 ± 13.11 in the data set on Male ICR mice [2] (setting [10]); 207.38 ± 10.12 with Male ICR mice [2] (setting [11]); 193.50 ± 6.39 in the data set with Male ICR mice [2] (setting [12]); 149.75 ± 6.55 with Male ICR mice [2] (setting [13]); 170.56 ± 12.00 in the data set on Male ICR mice [2] (setting [14]). The “Locomotor Activity Score” value with Male ICR mice [2] (setting [15]) is on record as 172.75 ± 6.25; in the data set on Male ICR mice [2] (setting [16]), 184.56 ± 7.88. Moreover, in the data set on Male ICR mice [2] (up to 30 mg/kg body weight, mice), the “Sedative effects (change in motor activity)” value is listed as “did not induce any sedative effects”. The “Head-dip Number” value with Male ICR mice [3] (setting [9]) came to 23.88 ± 1.08; with Male ICR mice [3] (setting [10]), 31.06 ± 1.88; with Male ICR mice [3] (setting [11]), 37.00 ± 1.94; with Male ICR mice [3] (setting [12]), 42.75 ± 3.58; in the data set on Male ICR mice [3] (setting [13]), 23.88 ± 1.86; in the data set on Male ICR mice [3] (setting [14]), 32.31 ± 1.80. Besides, the “Head-dip Number” value is 32.81 ± 2.27 in the data set with Male ICR mice [3] (setting [15]) and 30.13 ± 1.59 with Male ICR mice [3] (setting [16]). Also, the “Head-dip Time” value with Male ICR mice [3] (setting [9]) is recorded as 27.00 ± 1.10; with Male ICR mice [3] (setting [10]), 36.38 ± 1.93; in the data set with Male ICR mice [3] (setting [11]), 42.25 ± 2.54; with Male ICR mice [3] (setting [12]), 48.19 ± 3.92; in the data set on Male ICR mice [3] (setting [13]), 26.88 ± 1.95; in the data set on Male ICR mice [3] (setting [14]) it was 38.00 ± 0.79. Also, the “Head-dip Time” value in the data set with Male ICR mice [3] (setting [15]) is listed as 37.38 ± 2.32; with Male ICR mice [3] (setting [16]), 35.88 ± 1.81. The “Sedative effect (holeboard)” value in the data set with Male ICR mice [3] (up to 30 mg/kg, mice) is given as “did not induce a significant sedative effect”.
